Assay results taken from US4409210A, “Antibiotic compound” (priority 1982, dated 1983).
*1 amine or outer side, *2 acyl side, *3 side chain or, on linkers, in order; H or OH if unused. Where a SMILES comes first, the peptide text is derived from it. Bridges are numbered along the chain shown (N, C = ends). [ ]: non-standard residue; d: D form. ξ: configuration not given here. X2 = CCCCCCCCCCCC(CC(=O)[*:1])O[*:2]; ξAsp(3ξ-OH) = NC(C(=O)O)C(O)C(=O)O; X1 = O=C(C1C(O)CCN1[*:1])[*:2]

Assays:
streptococci = test: MIC summary, streptococci; assay type: cell-based; conditions: against streptococci
[1] = system: aerobic gram-negative organisms; assay type: cell-based
[2] = system: Anaerobic gram-negative rod bacteria, such as Bacteroides and Fusobacterium species; test: MIC summary, anaerobic gram-negative rods; assay type: cell-based
Blood levels in mice = assay type: in vivo
Procedure: Blood levels in mice were determined following an intravenous or intramuscular administration of Bu-2517. Blood samples were collected from orbital sinuses and assayed by the paper disc-agar diffusion method using S. lutea PCI 1001 as the test organism. […] Bu-2517 was not absorbed when administered orally. T1 TABLE 7-Blood Levels in Mice? -Blood levels (mcg/ml)? -intravenous dose? intramuscular dose? -Time after? 10? 30? 10? 30? 100? -administration? mg/kg? mg/kg? mg/kg? mg/kg? mg/kg? -1 min 70 224 ? --? --? --? -5 41 162 ? --? --? --? -10 33 131 ? 11 22 --? -15 --? --? --? --? 45 -20 23 68 13 32 --? -30 18 73 14 48 45 -45 18 64 14 41 --? -1 hr 14 50 13 36 47 -1.5 7.9 32 11 35 --? -2 5.6 23 8.9 28 --? -3 3.1 14 5.3 18 55 -5 --? --? <2.0 ? 8.9 --? -7 --? --? --? 3.8 23 -10 --? --? --? --? 15 -24 --? --? --? --? <0.3 -Half life (hr.) 0.81 0.87 1.6 1.8 3.7 -AUC* (mcg.hr/ml) 39 163 ? 40 137 ? 460 ? -

Structure (SMILES): CCCCCCCCCCCC1CC(=O)N2CCCC2C(=O)NC(CO)C(=O)N2CCCC2C(=O)NC(CCCNC(=N)N)C(=O)NC(C(O)C(=O)O)C(=O)NC(CO)C(=O)N2CCC(O)C2C(=O)NC(C(O)C(=O)O)C(=O)O1 (centres unmarked) [Bu-2517] (PSPR[ξAsp(3ξ-OH)]S[X1][ξAsp(3ξ-OH)]; linker N-C via X2; configuration not given here)
- fold more active than amphomycin (streptococci): 8-32 fold
- activity against aerobic gram-negative organisms [1]: no activity
- susceptibility of anaerobic gram-negative rod bacteria [2]: generally resistant
- blood level after 7 hours (Blood levels in mice; intramuscular administration of 30 mg/kg): measurable blood level was still observed
- AUC* (mcg.hr/ml), area under curve (Blood levels in mice; intramuscular dose 10 mg/kg): 40 µg·h/mL
- Half life (Blood levels in mice; intramuscular dose 10 mg/kg): 1.6 h
- Blood levels (Blood levels in mice; intramuscular dose 10 mg/kg, 10 min): 11000 ng/mL
- Blood levels (Blood levels in mice; intramuscular dose 10 mg/kg, 20 min): 13000 ng/mL
- Blood levels (Blood levels in mice; intramuscular dose 10 mg/kg, 30 min): 14000 ng/mL
- Blood levels (Blood levels in mice; intramuscular dose 10 mg/kg, 45 min): 14000 ng/mL
- Blood levels (Blood levels in mice; intramuscular dose 10 mg/kg, 1 hr): 13000 ng/mL
- Blood levels (Blood levels in mice; intramuscular dose 10 mg/kg, 1.5 hr): 11000 ng/mL
- Blood levels (Blood levels in mice; intramuscular dose 10 mg/kg, 2 hr): 8900 ng/mL
- Blood levels (Blood levels in mice; intramuscular dose 10 mg/kg, 3 hr): 5300 ng/mL
- Blood levels (Blood levels in mice; intramuscular dose 10 mg/kg, 5 hr): < 2000 ng/mL
- AUC* (mcg.hr/ml), area under curve (Blood levels in mice; intramuscular dose 30 mg/kg): 137 µg·h/mL
- Half life (Blood levels in mice; intramuscular dose 30 mg/kg): 1.8 h
- Blood levels (Blood levels in mice; intramuscular dose 30 mg/kg, 10 min): 22000 ng/mL
- Blood levels (Blood levels in mice; intramuscular dose 30 mg/kg, 20 min): 32000 ng/mL
- Blood levels (Blood levels in mice; intramuscular dose 30 mg/kg, 30 min): 48000 ng/mL
- Blood levels (Blood levels in mice; intramuscular dose 30 mg/kg, 45 min): 41000 ng/mL
- Blood levels (Blood levels in mice; intramuscular dose 30 mg/kg, 1 hr): 36000 ng/mL
- Blood levels (Blood levels in mice; intramuscular dose 30 mg/kg, 1.5 hr): 35000 ng/mL
- Blood levels (Blood levels in mice; intramuscular dose 30 mg/kg, 2 hr): 28000 ng/mL
- Blood levels (Blood levels in mice; intramuscular dose 30 mg/kg, 3 hr): 18000 ng/mL
- Blood levels (Blood levels in mice; intramuscular dose 30 mg/kg, 5 hr): 8900 ng/mL
- Blood levels (Blood levels in mice; intramuscular dose 30 mg/kg, 7 hr): 3800 ng/mL
- AUC* (mcg.hr/ml), area under curve (Blood levels in mice; intramuscular dose 100 mg/kg): 460 µg·h/mL
- Half life (Blood levels in mice; intramuscular dose 100 mg/kg): 3.7 h
- Blood levels (Blood levels in mice; intramuscular dose 100 mg/kg, 15 min): 45000 ng/mL
- Blood levels (Blood levels in mice; intramuscular dose 100 mg/kg, 30 min): 45000 ng/mL
- Blood levels (Blood levels in mice; intramuscular dose 100 mg/kg, 1 hr): 47000 ng/mL
- Blood levels (Blood levels in mice; intramuscular dose 100 mg/kg, 3 hr): 55000 ng/mL
- Blood levels (Blood levels in mice; intramuscular dose 100 mg/kg, 7 hr): 23000 ng/mL
- Blood levels (Blood levels in mice; intramuscular dose 100 mg/kg, 10 hr): 15000 ng/mL
- Blood levels (Blood levels in mice; intramuscular dose 100 mg/kg, 24 hr): < 300 ng/mL
- AUC* (mcg.hr/ml), area under curve (Blood levels in mice; intravenous dose 10 mg/kg): 39 µg·h/mL
- Half life (Blood levels in mice; intravenous dose 10 mg/kg): 0.81 h
- Blood levels (Blood levels in mice; intravenous dose 10 mg/kg, 1 min after administration): 70000 ng/mL
- Blood levels (Blood levels in mice; intravenous dose 10 mg/kg, 5 min): 41000 ng/mL
- Blood levels (Blood levels in mice; intravenous dose 10 mg/kg, 10 min): 33000 ng/mL
- Blood levels (Blood levels in mice; intravenous dose 10 mg/kg, 20 min): 23000 ng/mL
- Blood levels (Blood levels in mice; intravenous dose 10 mg/kg, 30 min): 18000 ng/mL
- Blood levels (Blood levels in mice; intravenous dose 10 mg/kg, 45 min): 18000 ng/mL
- Blood levels (Blood levels in mice; intravenous dose 10 mg/kg, 1 hr): 14000 ng/mL
- Blood levels (Blood levels in mice; intravenous dose 10 mg/kg, 1.5 hr): 7900 ng/mL
- Blood levels (Blood levels in mice; intravenous dose 10 mg/kg, 2 hr): 5600 ng/mL
- Blood levels (Blood levels in mice; intravenous dose 10 mg/kg, 3 hr): 3100 ng/mL
- AUC* (mcg.hr/ml), area under curve (Blood levels in mice; intravenous dose 30 mg/kg): 163 µg·h/mL
- Half life (Blood levels in mice; intravenous dose 30 mg/kg): 0.87 h
- Blood levels (Blood levels in mice; intravenous dose 30 mg/kg, 1 min after administration): 224000 ng/mL
- Blood levels (Blood levels in mice; intravenous dose 30 mg/kg, 5 min): 162000 ng/mL
- Blood levels (Blood levels in mice; intravenous dose 30 mg/kg, 10 min): 131000 ng/mL
- Blood levels (Blood levels in mice; intravenous dose 30 mg/kg, 20 min): 68000 ng/mL
- Blood levels (Blood levels in mice; intravenous dose 30 mg/kg, 30 min): 73000 ng/mL
- Blood levels (Blood levels in mice; intravenous dose 30 mg/kg, 45 min): 64000 ng/mL
- Blood levels (Blood levels in mice; intravenous dose 30 mg/kg, 1 hr): 50000 ng/mL
- Blood levels (Blood levels in mice; intravenous dose 30 mg/kg, 1.5 hr): 32000 ng/mL
- Blood levels (Blood levels in mice; intravenous dose 30 mg/kg, 2 hr): 23000 ng/mL
- Blood levels (Blood levels in mice; intravenous dose 30 mg/kg, 3 hr): 14000 ng/mL
- absorption, parenterally (Blood levels in mice; intravenous or intramuscular administration): well absorbed
- absorption when administered orally (Blood levels in mice; oral): not absorbed
